Test results published in US20260256923A1, “NEW RECRUITMENT ELEMENT OF UBIQUITIN LIGASE AND USE THEREOF” (SHENZHEN LINGGENE BIOTECH CO., LTD., priority 2023, published 2026).

Assays:
MDM2 = MDM2 (Homo sapiens, UniProt Q00987); test: Pull-down with biotin-labeled AS1411 in HeLa cells transfected with si-NC or si-NCL; type: cell-based; design: HeLa cervical cancer cells were lysed with an IP lysis solution; endogenous in cells; host or cells: HeLa; details: 500 nM biotin-labeled, 6 h, si-NCL vs si-NC
Protocol: HeLa cells were transfected with negative control siRNA (si-NC, SEQ ID NO: 16) or NCL siRNA (si-NCL, SEQ ID NO: 17) and subsequently incubated with 500 nM biotin-labeled AS1411 for 6 h. After cell lysis, the supernatant was incubated with streptavidin-coated magnetic beads at 4° C. overnight. The bound AS1411 and its captured proteins on the magnetic beads were eluted with an eluent, and the pull-down products were detected by western blot assay.

[1] = test system: MCF 10A human normal mammary epithelial cells; test: Toxicity to normal cells, cell apoptosis proportion by flow cytometer; type: cell-based; details: 0-5000 nM, 4 days, medium renewed every day
Protocol: The toxicity of AS1411 to normal cells was compared with that of the small molecule ligand nutlin-3a of MDM2 to normal cells. AS1411 or nutlin-3a at different concentrations (0 nM, 500 nM, 1000 nM, and 5000 nM) was incubated with MCF 10A human normal mammary epithelial cells for 4 days, and the medium containing the respective concentrations of AS1411 or nutlin-3a was renewed every day. The cell apoptosis proportion was detected using a flow cytometer.

[2] = G4 structural characteristics, N-methyl mesoporphyrin IX (NMM) fluorescent probe; type: physicochemical; details: 1 μM NMM
Protocol: Both AS1411 and iSN04 are oligonucleotides specifically binding to NCL. The sequence of AS1411 is SEQ ID NO: 1, and the sequence of iSN04 is SEQ ID NO: 14. AS1411 contains a plurality of GGT motifs, and iSN04 contains one GGT motif. Whether AS1411 and iSN04 have stable G4 structural characteristics was determined. The experimental process was as follows: 5 μM NC (negative control, SEQ ID NO: 15), AS1411, or iSN04 was added to water, and the total volume was 100 μL. The mixture was heated at 95° C. for 7 min and then immediately incubated on ice for 3 min, followed by the addition of 2 μL of N-methyl mesoporphyrin IX (NMM) (purchased from MCE, Cat. No.: HY-133821) to make a final concentration of 1 μM. The resulting mixture was incubated at room temperature for 1 h in the dark. The fluorescence intensity was detected by a microplate reader, with an emission wavelength of 550-700 nm and an excitation wavelength of […].
Guanine-rich DNA sequences can form more distinct G4 structural characteristics in the presence of metal ions (usually sodium and potassium ions). 5 μM NC (negative control, SEQ ID NO: 15), AS1411, or iSN04 was added to a 100 mM K^+ solution, and the total volume was 100 μL. The mixture was well mixed, heated at 95° C. for 7 min, and then immediately incubated on ice for 3 min, followed by the addition of 2 μL of N-methyl mesoporphyrin IX (NMM) (purchased from MCE, Cat. No.: HY-133821) to make a final concentration of 1 μM. The resulting mixture was incubated at room temperature for 1 h in the dark. The fluorescence intensity was detected by a microplate reader, with an emission wavelength of 550-700 nm and an excitation wavelength of […].

STAT3 = STAT3 (Homo sapiens, UniProt P40763); test: STAT3 protein degradation in HeLa cells, western blot; type: cell-based; design: endogenous in cells; host or cells: HeLa; details: 500 nM, 6 h
Protocol: HeLa cells were incubated with 500 nM said first PROTAC product 1411-S3-1 or second PROTAC product 1411-S3-2, and corresponding cell samples were collected at time gradients of 0 h, 2 h, 6 h, 12 h, 18 h, and 24 h for protein extraction and subsequent western blot assay.
HeLa cells were incubated with the first PROTAC product 1411-S3-1 or the second PROTAC product 1411-S3-2 at concentrations of 0 nM, 100 nM, 200 nM, 500 nM, and 1000 nM. After 6 h, cell samples were collected for protein extraction and subsequent western blot assay. […] The half-maximal degradation concentrations (DC50) of the first PROTAC product 1411-S3-1 and the second PROTAC product 1411-S3-2 against STAT3 at the protein level were 262.5 nM and 136.3 nM, respectively, as shown in FIG. 19.
HeLa cells were incubated with 500 nM double-stranded transcription factor decoy oligonucleotide S3, AS1411, the first PROTAC product 1411-S3-1, the second PROTAC product 1411-S3-2, or AS1411+double-stranded transcription factor decoy oligonucleotide S3. After 6 h, cell samples were collected for protein extraction and subsequent western blot assay.
HeLa cells were incubated with 500 nM said first PROTAC product 1411-S3-1 or second PROTAC product 1411-S3-2, and proteasome inhibitor MG132 was added. After 6 h, cell samples were collected for protein extraction and subsequent western blot assay. […]

STAT3, sequence (P40763 whole entry): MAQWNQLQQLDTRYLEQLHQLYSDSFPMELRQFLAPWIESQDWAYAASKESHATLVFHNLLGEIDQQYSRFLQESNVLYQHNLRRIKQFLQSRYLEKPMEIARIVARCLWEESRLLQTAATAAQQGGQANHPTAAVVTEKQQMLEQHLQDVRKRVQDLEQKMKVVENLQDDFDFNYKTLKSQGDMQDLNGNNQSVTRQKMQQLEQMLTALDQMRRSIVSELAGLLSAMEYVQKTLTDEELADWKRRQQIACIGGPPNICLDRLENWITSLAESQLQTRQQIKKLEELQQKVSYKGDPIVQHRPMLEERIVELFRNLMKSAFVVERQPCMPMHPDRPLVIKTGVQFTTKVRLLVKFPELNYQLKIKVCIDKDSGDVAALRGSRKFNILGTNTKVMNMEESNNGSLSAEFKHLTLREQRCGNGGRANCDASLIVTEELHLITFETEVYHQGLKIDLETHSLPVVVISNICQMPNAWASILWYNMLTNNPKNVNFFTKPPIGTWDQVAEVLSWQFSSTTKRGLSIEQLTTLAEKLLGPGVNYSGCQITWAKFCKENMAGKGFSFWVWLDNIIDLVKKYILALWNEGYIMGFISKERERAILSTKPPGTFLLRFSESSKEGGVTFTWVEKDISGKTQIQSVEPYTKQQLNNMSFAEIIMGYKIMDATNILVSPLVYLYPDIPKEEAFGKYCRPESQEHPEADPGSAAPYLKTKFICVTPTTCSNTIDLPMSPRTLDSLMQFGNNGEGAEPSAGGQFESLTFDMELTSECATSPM
MDM2, sequence (P19338 2-710 partner limits assumed): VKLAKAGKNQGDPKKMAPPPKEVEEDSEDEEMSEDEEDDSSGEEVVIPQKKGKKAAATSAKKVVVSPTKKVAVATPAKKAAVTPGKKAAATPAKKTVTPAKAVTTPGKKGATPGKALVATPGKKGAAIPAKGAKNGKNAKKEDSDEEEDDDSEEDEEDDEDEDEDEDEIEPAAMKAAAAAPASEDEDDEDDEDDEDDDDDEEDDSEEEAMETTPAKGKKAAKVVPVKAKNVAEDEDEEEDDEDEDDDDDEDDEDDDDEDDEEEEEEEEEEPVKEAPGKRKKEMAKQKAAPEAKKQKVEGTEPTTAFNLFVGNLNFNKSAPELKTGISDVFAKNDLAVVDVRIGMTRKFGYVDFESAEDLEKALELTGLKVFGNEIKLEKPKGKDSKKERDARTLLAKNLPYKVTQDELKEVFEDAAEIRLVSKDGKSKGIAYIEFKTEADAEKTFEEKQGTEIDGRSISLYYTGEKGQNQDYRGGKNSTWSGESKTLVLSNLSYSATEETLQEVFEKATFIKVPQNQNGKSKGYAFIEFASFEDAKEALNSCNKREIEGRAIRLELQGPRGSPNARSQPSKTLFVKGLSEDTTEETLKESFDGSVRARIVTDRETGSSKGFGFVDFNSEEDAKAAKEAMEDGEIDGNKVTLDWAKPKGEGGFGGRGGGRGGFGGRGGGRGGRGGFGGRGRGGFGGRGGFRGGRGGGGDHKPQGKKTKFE
MDM2, sequence (Q00987 whole entry): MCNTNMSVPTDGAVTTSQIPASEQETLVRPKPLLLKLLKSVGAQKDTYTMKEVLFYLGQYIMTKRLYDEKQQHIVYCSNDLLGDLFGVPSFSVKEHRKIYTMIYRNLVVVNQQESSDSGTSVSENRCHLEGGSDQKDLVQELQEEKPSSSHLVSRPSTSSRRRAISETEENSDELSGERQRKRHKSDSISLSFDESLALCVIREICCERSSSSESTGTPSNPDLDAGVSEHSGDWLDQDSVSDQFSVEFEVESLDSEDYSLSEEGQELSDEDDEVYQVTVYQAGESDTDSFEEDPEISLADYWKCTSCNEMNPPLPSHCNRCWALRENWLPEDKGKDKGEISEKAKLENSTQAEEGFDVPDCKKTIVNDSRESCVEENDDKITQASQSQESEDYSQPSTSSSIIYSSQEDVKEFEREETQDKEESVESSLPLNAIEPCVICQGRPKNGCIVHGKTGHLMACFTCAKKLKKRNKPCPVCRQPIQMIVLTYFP

AS1411: DNA aptamer, GRO binding NCL, SEQ ID NO: 1: 5′-GGTGGTGGTGGTTGTGGTGGTGGTGG-3′
recruitment of MDM2 when NCL is silenced (MDM2): silencing NCL can block the recruitment of MDM2 by AS1411 | toxicity to normal cells (cell apoptosis proportion) [1]: has no significant toxicity | G4 structural characteristics (fluorescence signal intensity) ([2]; 5 μM in 100 mM K+ solution): over 10000 | G4 structural characteristics (fluorescence signal intensity) ([2]; 5 μM in water (no K+)): over 4000 | protein level of STAT3 (STAT3): only the first PROTAC product 1411-S3-1 and the second PROTAC product 1411-S3-2 can reduce the protein level of transcription factor STAT3
